Where a SMILES comes first, the peptide text is derived from it. Bridges are numbered along the chain shown (N, C = ends). [ ]: non-standard residue; d: D form. The star is where a group is joined. X1 = CC[C@H](C)CCCCC(=O)*; Dab = NCC[C@H](N)C(=O)O
What was measured:
[1] = tested on: mucin from the porcine stomach; assay: PMB binding to mucin by ultracentrifugation in CAMHB with 1% mucin; format: in vitro ADME; design: Unbound conc.: unit not given here
Procedure: Mucin from the porcine stomach was obtained from Sigma-Aldrich (Merck KGaA, Saint-Quentin Fallavier, France) and solubilized in NaCl 0.9% to obtain a solution at 20% (pH adjusted to 7). The solution was autoclaved at 110°C for 15 minutes.
PMB solutions at concentrations ranging from 0.5 to 10,000 mg/L in CAMHB with 1% mucin were incubated for 1 h at 35°C, then ultracentrifuged at ~290 000 g for 5 h at room temperature (Beckman Optima LE-80K, rotor: Beckman Coulter 70.1 Ti), according to a method previously described ([35]). Unbound PMB concentrations in the supernates were determined by LC-MS/MS (method adapted from a previous publication ([36]) and detailed in Supplemental material) and used to determine the unbound fraction (fu) of PMB. Potential PMB sedimentation ([37]) during experimentation was determined from PMB solutions prepared in mucin-free CAMHB and subjected to the same ultracentrifugation conditions as previously described, and then used to correct for unbound PMB concentrations.
The same procedure was performed with a nonautoclaved mucin solution. Experiments were done in triplicate.
The relationship between fu and PMB total concentrations was modeled according to a sigmoidal Emax function (equation 1):
(1) fu=E0+ Imax × C^ε/IC50ε+ C^ε,
where E0 represents the minimum fu, Imax the maximum increase in fu, IC50 (mg/L) corresponds to PMB total concentration needed to reach 50% of Imax, C (mg/L) to the PMB total concentration, and ε to the Hill coefficient.
Parameter estimation was performed using nonlinear regression with iteratively reweighted least squares (R, version 4.1.3 – Package: robustbase, version 0.99–0). Two sets of parameters were estimated, one for the data generated with autoclaved mucin, another for the data generated without autoclave. The two sets of parameters were compared using ANOVA testing.

[2] = tested on: Acinetobacter baumannii AB122-D12; assay: PMB MIC in CAMHB with or without 1% mucin, AB122-D12; format: cell-based
Procedure: Two clinical MDR strains of A. baumannii, isolated from a patient before (AB121-D0) and 12 days after treatment with colistin (AB122-D12), were used during this study ([32]). AB122-D12 carries a 10 amino acid insertion into the pmrB gene, known to confer PMB resistance.
PMB MICs of both A. baumannii strains were determined in commercial CAMHB (BioMérieux, Marcy-l’Etoile, France) according to the European Committee on Antimicrobial Susceptibility Testing and Clinical and Laboratory Standards Institute (CLSI) recommendations ([33], [34]). PMB MICs of the two A. baumannii isolates were also determined at least in duplicate in CAMHB supplemented with 1% of mucin.

[3] = equation 1 fit, all data pooled, value (variance) in Table 1, CAMHB + 1% mucin, ultracentrifugation, LC-MS/MS, triplicate
[4] = equation 1 fit, autoclaved mucin data
[5] = equation 1 fit, non-autoclaved mucin data
[6] = simulated with equation 1, autoclaved mucin parameters, total conc. 0.5, CAMHB + 1% mucin
[7] = simulated with equation 1, autoclaved mucin parameters, total conc. 1, CAMHB + 1% mucin
[8] = simulated with equation 1, autoclaved mucin parameters, total conc. 2, CAMHB + 1% mucin
[9] = simulated with equation 1, autoclaved mucin parameters, total conc. 4, CAMHB + 1% mucin
[10] = simulated with equation 1, autoclaved mucin parameters, total conc. 8, CAMHB + 1% mucin
[11] = simulated with equation 1, autoclaved mucin parameters, total conc. 10, CAMHB + 1% mucin
[12] = simulated with equation 1, autoclaved mucin parameters, total conc. 50, CAMHB + 1% mucin
[13] = simulated with equation 1, autoclaved mucin parameters, total conc. 100, CAMHB + 1% mucin
[14] = simulated with equation 1, autoclaved mucin parameters, total conc. 500, CAMHB + 1% mucin
[15] = simulated with equation 1, autoclaved mucin parameters, total conc. 1000, CAMHB + 1% mucin
[16] = simulated with equation 1, autoclaved mucin parameters, total conc. 5000, CAMHB + 1% mucin
[17] = simulated with equation 1, autoclaved mucin parameters, total conc. 10000, CAMHB + 1% mucin
[18] = simulated with equation 1, non-autoclaved mucin parameters, total conc. 0.5, CAMHB + 1% mucin
[19] = simulated with equation 1, non-autoclaved mucin parameters, total conc. 1, CAMHB + 1% mucin
[20] = simulated with equation 1, non-autoclaved mucin parameters, total conc. 2, CAMHB + 1% mucin
[21] = simulated with equation 1, non-autoclaved mucin parameters, total conc. 4, CAMHB + 1% mucin
[22] = simulated with equation 1, non-autoclaved mucin parameters, total conc. 8, CAMHB + 1% mucin
[23] = simulated with equation 1, non-autoclaved mucin parameters, total conc. 10, CAMHB + 1% mucin
[24] = simulated with equation 1, non-autoclaved mucin parameters, total conc. 50, CAMHB + 1% mucin
[25] = simulated with equation 1, non-autoclaved mucin parameters, total conc. 100, CAMHB + 1% mucin
[26] = simulated with equation 1, non-autoclaved mucin parameters, total conc. 500, CAMHB + 1% mucin
[27] = simulated with equation 1, non-autoclaved mucin parameters, total conc. 1000, CAMHB + 1% mucin
[28] = simulated with equation 1, non-autoclaved mucin parameters, total conc. 5000, CAMHB + 1% mucin
[29] = simulated with equation 1, non-autoclaved mucin parameters, total conc. 10000, CAMHB + 1% mucin
[30] = simulated with equation 1, pooled data parameters, total conc. 0.5, CAMHB + 1% mucin
[31] = simulated with equation 1, pooled data parameters, total conc. 1, CAMHB + 1% mucin
[32] = simulated with equation 1, pooled data parameters, total conc. 2, CAMHB + 1% mucin
[33] = simulated with equation 1, pooled data parameters, total conc. 4, CAMHB + 1% mucin
[34] = simulated with equation 1, pooled data parameters, total conc. 8, CAMHB + 1% mucin
[35] = simulated with equation 1, pooled data parameters, total conc. 10, CAMHB + 1% mucin
[36] = simulated with equation 1, pooled data parameters, total conc. 50, CAMHB + 1% mucin
[37] = simulated with equation 1, pooled data parameters, total conc. 100, CAMHB + 1% mucin
[38] = simulated with equation 1, pooled data parameters, total conc. 500, CAMHB + 1% mucin
[39] = simulated with equation 1, pooled data parameters, total conc. 1000, CAMHB + 1% mucin
[40] = simulated with equation 1, pooled data parameters, total conc. 5000, CAMHB + 1% mucin
[41] = simulated with equation 1, pooled data parameters, total conc. 10000, CAMHB + 1% mucin

CC[C@H](C)CCCCC(=O)N[C@@H](CCN)C(=O)N[C@H](C(=O)N[C@@H](CCN)C(=O)N[C@H]1CCNC(=O)[C@H]([C@@H](C)O)NC(=O)[C@H](CCN)NC(=O)[C@H](CCN)NC(=O)[C@H](CC(C)C)NC(=O)[C@@H](Cc2ccccc2)NC(=O)[C@H](CCN)NC1=O)[C@@H](C)O [PMB, polymyxin B] (X1-[Dab]T[Dab][Dab][Dab][dF]L[Dab][Dab]T; lactam 4-C)
PMB bound to mucin ([1]; PMB concentrations encountered in clinical practice, up to 10 mg/L, 1% mucin): approximately 95% | PMB unbound fraction (fu), maximum ([1]; PMB total concentration of 200 mg/L (b7) or higher than 200 mg/L, CAMHB + 1% mucin, ultracentrifugation, LC-MS/MS): 60% | PMB unbound fraction (fu) ([1]; PMB total concentrations up to 20 mg/L, CAMHB + 1% mucin, 1 h 35°C, ultracentrifugation ~290 000 g 5 h, LC-MS/MS, triplicate): 6% | IC50, PMB total concentration needed to reach 50% of the maximum fu [1, 3]: 114.37 (196) mg/L | Imax, maximum PMB fu increase [1, 3]: 0.56 (0.0009) | ε, Hill coefficient of fu vs total concentration [1, 3]: 1.97 (0.252) | IC50 of fu model [1, 4]: 104.01 µg/mL | Imax, maximum fu increase [1, 4]: 0.56 | E0, minimum fu ([1]; equation 1 fit, autoclaved mucin data, CAMHB + 1% mucin, ultracentrifugation): 0.067 | IC50 of fu model [1, 5]: 126.95 µg/mL | Imax, maximum fu increase [1, 5]: 0.57 | E0, minimum fu ([1]; equation 1 fit, non-autoclaved mucin data, CAMHB + 1% mucin, ultracentrifugation): 0.056 | E0, minimum PMB fu value ([1]; sigmoidal Emax fit of fu vs PMB total concentration (equation 1), all data pooled, value (variance) in Table 1, CAMHB + 1% mucin, 1 h 35°C, ultracentrifugation ~290 000 g 5 h room temperature, LC-MS/MS, triplicate): 0.061 (0.0004) | Unbound conc. [1, 6]: 0.03 | fu (95% CI) [1, 6]: 6.7 (0.1 - 13.2) % | Unbound conc. [1, 7]: 0.07 | fu (95% CI) [1, 7]: 6.7 (0.1 - 13.2) % | Unbound conc. [1, 8]: 0.13 | fu (95% CI) [1, 8]: 6.7 (0.1 - 13.2) % | Unbound conc. [1, 9]: 0.27 | fu (95% CI) [1, 9]: 6.7 (0.3 - 13.2) % | Unbound conc. [1, 10]: 0.55 | fu (95% CI) [1, 10]: 6.9 (0.7 - 13.0) % | Unbound conc. [1, 11]: 0.70 | fu (95% CI) [1, 11]: 7.0 (1.0 - 13.0) % | Unbound conc. [1, 12]: 7.96 | fu (95% CI) [1, 12]: 15.9 (7.7 – 24.2) % | Unbound conc. [1, 13]: 33.4 | fu (95% CI) [1, 13]: 33.4 (24.9 – 41.9) % | Unbound conc. [1, 14]: 304 | fu (95% CI) [1, 14]: 60.8 (55.0 - 66.6) % | Unbound conc. [1, 15]: 621 | fu (95% CI) [1, 15]: 62.1 (57.2 – 67.1) % | Unbound conc. [1, 16]: 3120 | fu (95% CI) [1, 16]: 62.5 (57.1 – 67.9) % | Unbound conc. [1, 17]: 6250 | fu (95% CI) [1, 17]: 62.5 (57.1 – 68.0) % | Unbound conc. [1, 18]: 0.03 | fu (95% CI) [1, 18]: 5.6 (2.1 - 9.1) % | Unbound conc. [1, 19]: 0.06 | fu (95% CI) [1, 19]: 5.6 (2.1 - 9.1) % | Unbound conc. [1, 20]: 0.11 | fu (95% CI) [1, 20]: 5.6 (2.2 - 9.1) % | Unbound conc. [1, 21]: 0.23 | fu (95% CI) [1, 21]: 5.7 (2.3 - 9.1) % | Unbound conc. [1, 22]: 0.48 | fu (95% CI) [1, 22]: 5.9 (2.7 - 9.1) % | Unbound conc. [1, 23]: 0.61 | fu (95% CI) [1, 23]: 6.1 (3.0 - 9.2) % | Unbound conc. [1, 24]: 7.08 | fu (95% CI) [1, 24]: 14.2 (10.5 – 17.8) % | Unbound conc. [1, 25]: 27.9 | fu (95% CI) [1, 25]: 27.9 (23.8 – 32.1) % | Unbound conc. [1, 26]: 293 | fu (95% CI) [1, 26]: 58.6 (54.6 - 62.6) % | Unbound conc. [1, 27]: 615 | fu (95% CI) [1, 27]: 61.5 (58.4 – 64.7) % | Unbound conc. [1, 28]: 3130 | fu (95% CI) [1, 28]: 62.7 (58.6 – 66.7) % | Unbound conc. [1, 29]: 6270 | fu (95% CI) [1, 29]: 62.7 (58.6 - 66.9) % | Unbound conc. [1, 30]: 0.03 | fu (95% CI) [1, 30]: 6.1 (2.1 - 10.0) % | Unbound conc. [1, 31]: 0.06 | fu (95% CI) [1, 31]: 6.1 (2.1 - 10.0) % | Unbound conc. [1, 32]: 0.12 | fu (95% CI) [1, 32]: 6.1 (2.2 - 10.0) % | Unbound conc. [1, 33]: 0.25 | fu (95% CI) [1, 33]: 6.1 (2.3 - 10.0) % | Unbound conc. [1, 34]: 0.51 | fu (95% CI) [1, 34]: 6.4 (2.7 - 10.0) % | Unbound conc. [1, 35]: 0.65 | fu (95% CI) [1, 35]: 6.5 (3.0 - 10.1) % | Unbound conc. [1, 36]: 7.62 | fu (95% CI) [1, 36]: 15.2 (10.7 - 19.7) % | Unbound conc. [1, 37]: 30.4 | fu (95% CI) [1, 37]: 30.4 (25.6 - 35.2) % | Unbound conc. [1, 38]: 296 | fu (95% CI) [1, 38]: 59.2 (55.1 - 63.2) % | Unbound conc. [1, 39]: 613 | fu (95% CI) [1, 39]: 61.3 (58.2 - 64.4) % | Unbound conc. [1, 40]: 3100 | fu (95% CI) [1, 40]: 62.1 (58.4 - 65.8) % | Unbound conc. [1, 41]: 6210 | fu (95% CI) [1, 41]: 62.1 (58.3 - 65.8) % | MICu (corrected by fu) ([2]; CAMHB + 1% mucin, unbound MIC = MIC x fu): 628 mg/L | MICu ratio in the presence and absence of mucin ([2]; MIC with 1% mucin corrected by fu): 20 | Fold increase of MIC in the presence of 1% mucin compared to CAMHB ([2]; total concentrations): 32 fold
